Data: patent US8524302B2, “Natural flavour enhancers and methods for making same” (Pepsico, priority 2009, dated 2013)
Entries after “also recorded” stand apart in the source; their conditions may differ.

Key:
sensory panel [1] = assay: Sensory (triangle) tests of the compounds in water; assay type: in vivo; settings: for Sensory descriptors / Intensity (0-5): additive 10 mmol/L; for Sensory descriptors: pH 6.5; for Intensity (0-5): pH 6.5, aroma and taste intensity, scale 0-5; for kokumi sensation (in words): without inducing or glutamate-containing composition
Method: (§1) Unless otherwise indicated, all sensory tests for the samples are determined using triangle tests (Wieser and Belitz, Z. Lebensm. Unters. Forsch., 1975, 159, 65-72) in three different sessions. The sensory panel is trained to evaluate aqueous solutions (2 mL each) of the following reference taste compounds dissolved in bottled water with a pH of 6.0: sucrose (25 mmol/L) for sweet taste; lactic acid (20 mmol/L) for sour taste; NaCl (30 mmol/L) for salty taste; caffeine (1 mmol/L) for bitter taste; and MSG (3 mmol/L) for umami taste, tannic acid (0.05%) for puckering astringency, and quercetin-O-β-D-glucopyranoside (0.01 mmol/L) for a velvety astringent, mouth-drying oral sensation. For the training of viscosity, a gelatin solution (0.5% in water) was used. […] Sensory analyses were performed in a sensory panel room at 19-22° C. in three different sessions using nose clamps.
(§2) For recording the taste profiles, samples are prepared as indicated in the examples below. Flavor profiles of samples are determined in a triangle test in three different sessions. Panelists refrain from eating or drinking for at least 1 hour prior to the session. At the start of the session and before each trial, the subjects rinsed with water and expectorated. The participants receive a set of two blanks and one taste sample. Liquids are swirled around in the mouth briefly and expectorated. […] Each sample with additive is compared to two reference samples without additives. Kokumi intensity is rated according to a scale from 0 to 5 (with 5 being the most intensive). Punch refers to an initial kokumi sensation experienced in the mouth within 0-3 seconds from the time when a food or liquid is put in the mouth, while long-lasting refers to kokumi felt after 10-60 seconds therefrom.
Sensory (triangle) tests are performed by dissolving the listed compounds in water (Evian®). Additives are added as specified in table below. The pH-value of all samples is adjusted to 6.5 using formic acid (0.1 mol/L) or sodium hydroxide (0.1 mol/L). For each sample, aroma and taste intensity is rated and panelists are asked to describe sensory characteristics.

sensory panel [2] = assay: Sensory (triangle) tests: kokumi intensity in chicken broth; assay type: in vivo; settings: for Kokumi intensity (0-5): pH 6.5, scale 0-5 (blank = 2); for Sensory descriptors: pH 6.5; for kokumi effect (in words): Table 10
Method: as §1, §2
Sensory (triangle) tests are performed by dilution of 3 grams of chicken broth concentrate (Gourmet Bouillon Huhn; Maggi, Singen, Germany) with 100 mL water (Evian®). Additives are added as specified in table below. The pH-value of all samples is adjusted to 6.5 using formic acid (0.1 mol/L) or sodium hydroxide (0.1 mol/L). […] For each sample, kokumi intensity is rated and panelists were asked to describe sensory characteristics.

With `C/C=C/[S+]([O-])C[C@H](N)C(=O)O` (mixture of isomers) [(E)-S-1-propenyl-L-cysteine-(±)-SO] the Sensory descriptors (sensory panel [1]) was “onion aroma”, the “Intensity (0-5)” value (sensory panel [1]) was 0 and the “Kokumi intensity (0-5)” value (sensory panel [2]; additive 10 mmol/L) was 2.2.
With `C/C=C\[S+]([O-])C[C@H](N)C(=O)O` (mixture of isomers) [(Z)-S-1-propenyl-L-cysteine-(±)-SO] the Sensory descriptors (sensory panel [1]) was “tongue covering, pungent”, the “Intensity (0-5)” value (sensory panel [1]) was 1 and the “Kokumi intensity (0-5)” value (sensory panel [2]; additive 10 mmol/L) was 2.2.
`C=CC[S+]([O-])C[C@H](NC(=O)CC[C@H](N)C(=O)O)C(=O)NCC(=O)O` (mixture of isomers) [S-allyl-GSH-(±)-SO, S-allyl-γ-L-Glu-L-Cys-(±)-SO-Gly] was tested, and the Sensory descriptors (sensory panel [1]) was “flavourless”, the “Intensity (0-5)” value (sensory panel [1]) was 0 and the “Kokumi intensity (0-5)” value (sensory panel [2]; additive 10 mmol/L) was 2.8.
For `C=CC[S@+]([O-])C[C@H](N)C(=O)O` (racemic) [S-allyl-L-cysteine-(±)-SO], the “Intensity (0-5)” value (sensory panel [1]) was 1 and the “Kokumi intensity (0-5)” value (sensory panel [2]; additive 10 mmol/L) was 2.4.
With `CC[S+]([O-])C[C@H](NC(=O)CC[C@H](N)C(=O)O)C(=O)NCC(=O)O` (mixture of isomers) [S-ethyl-GSH-(±)-SO, S-ethyl-γ-L-Glu-L-Cys-(±)-SO-Gly] the Sensory descriptors (sensory panel [1]) was “flavourless”, the “Intensity (0-5)” value (sensory panel [1]) was 0 and the Sensory descriptors (sensory panel [2]; additive 10 mmol/L) was “same intensity as blank”. For the same molecule, the “Kokumi intensity (0-5)” value (sensory panel [2]; additive 10 mmol/L) was 2.
`C[S+]([O-])C[C@H](NC(=O)CC[C@H](N)C(=O)O)C(=O)NCC(=O)O` (mixture of isomers) [S-methyl-GSH-(±)-SO, S-methyl-γ-L-Glu-L-Cys-(±)-SO-Gly] was tested, and the Sensory descriptors (sensory panel [1]) was “flavourless”, the “Intensity (0-5)” value (sensory panel [1]) was 0 and the Sensory descriptors (sensory panel [2]; additive 10 mmol/L) was “same intensity as blank”. For the same molecule, the “Kokumi intensity (0-5)” value (sensory panel [2]; additive 10 mmol/L) was 2.
`CCC[S+]([O-])C[C@H](NC(=O)CC[C@H](N)C(=O)O)C(=O)NCC(=O)O` (mixture of isomers) [S-propyl-GSH-(±)-SO, S-propyl-γ-L-Glu-L-Cys-(±)-SO-Gly] was tested, and the Sensory descriptors (sensory panel [1]) was “flavourless”, the “Intensity (0-5)” value (sensory panel [1]) was 0 and the Sensory descriptors (sensory panel [2]; additive 10 mmol/L) was “same intensity as blank”. For the same molecule, the “Kokumi intensity (0-5)” value (sensory panel [2]; additive 10 mmol/L) was 2.
In the case of `C/C=C/[S+]([O-])C[C@H](NC(=O)CC[C@H](N)C(=O)O)C(=O)O` (mixture of isomers) [γ-L-glutamyl-(E)-S-1-propenyl-L-cysteine-(±)-SO], the Sensory descriptors (sensory panel [1]) is reported as “onion aroma”, the “Intensity (0-5)” value (sensory panel [1]) is reported as 0.5 and the “Kokumi intensity (0-5)” value (sensory panel [2]; additive 10 mmol/L) is reported as 2.5.
With `C=CC[S+]([O-])C[C@H](NC(=O)CC[C@H](N)C(=O)O)C(=O)O` (mixture of isomers) [γ-L-glutamyl-S-allyl-L-cysteine-(±)-SO] the Sensory descriptors (sensory panel [1]) was “burning”, the “Intensity (0-5)” value (sensory panel [1]) was 0.5 and the “Kokumi intensity (0-5)” value (sensory panel [2]; additive 10 mmol/L) was 2.5.
For `CC[S+]([O-])C[C@H](NC(=O)CC[C@H](N)C(=O)O)C(=O)O` (mixture of isomers) [γ-L-glutamyl-S-ethyl-L-cysteine-(±)-SO], the Sensory descriptors (sensory panel [1]) was “flavourless”, the “Intensity (0-5)” value (sensory panel [1]) was 0 and the “Kokumi intensity (0-5)” value (sensory panel [2]; additive 10 mmol/L) was 2.2.
`C[S+]([O-])C[C@H](NC(=O)CC[C@H](N)C(=O)O)C(=O)O` (mixture of isomers) [γ-L-glutamyl-S-methyl-L-cysteine-(±)-SO] was tested, and the Sensory descriptors (sensory panel [1]) was “flavourless”, the “Intensity (0-5)” value (sensory panel [1]) was 0 and the “Kokumi intensity (0-5)” value (sensory panel [2]; additive 10 mmol/L) was 2.5.
With `CCC[S+]([O-])C[C@H](NC(=O)CC[C@H](N)C(=O)O)C(=O)O` (mixture of isomers) [γ-L-glutamyl-S-propyl-L-cysteine-(±)-SO] the Sensory descriptors (sensory panel [1]) was “flavourless”, the “Intensity (0-5)” value (sensory panel [1]) was 0 and the “Kokumi intensity (0-5)” value (sensory panel [2]; additive 10 mmol/L) was 2.1.
For `C/C=C/SC[C@H](N)C(=O)O` [(E)-S-1-propenyl-L-cysteine], the Sensory descriptors (sensory panel [1]) was “fresh onion aroma”, the “Intensity (0-5)” value (sensory panel [1]) was 1 and the “Kokumi intensity (0-5)” value (sensory panel [2]; additive 10 mmol/L) was 2.5.
`C/C=C\SC[C@H](N)C(=O)O` [(Z)-S-1-propenyl-L-cysteine] was tested, and the “Intensity (0-5)” value (sensory panel [1]) was 1, the “Kokumi intensity (0-5)” value (sensory panel [2]; additive 5 mmol/L) was 3.1 and the “Kokumi intensity (0-5)” value (sensory panel [2]; additive 10 mmol/L) was 3.1.
In the case of `N[C@@H](CCC(=O)N[C@@H](CS)C(=O)NCC(=O)O)C(=O)O` [GSH, glutathione, reference compound], the “Kokumi intensity (0-5)” value (sensory panel [2]; additive 10 mmol/L) is reported as 3.5.
`N[C@@H](CCC(=O)O)C(=O)[O-].[Na+]` [MSG, mono sodium glutamate, reference compound] was tested, and the “kokumi sensation (in words)” value (sensory panel [1]) was “no kokumi effect”, the “kokumi effect (in words)” value (sensory panel [2]) was “no kokumi effect” and the Sensory descriptors (sensory panel [2]; additive 10 mmol/L) was “higher umami intensity; also recorded: increased umami”. For the same molecule, the “Kokumi intensity (0-5)” value (sensory panel [2]; additive 10 mmol/L) was 2.
In the case of `C/C=C/SC[C@H](NC(=O)CC[C@H](NCC(=O)[C@@H](O)[C@H](O)[C@H](O)CO)C(=O)O)C(=O)O` [N-(1-Deoxy-D-fructos-1-yl)-γ-L-glutamyl-(E)-S-1-propenyl-L-cysteine], the “Kokumi intensity (0-5)” value (sensory panel [2]; additive 4 mmol/L) is reported as 3.3.
For `[Cl-].[Na+]` [NaCl, sodium chloride, reference compound], the “kokumi sensation (in words)” value (sensory panel [1]) was “no kokumi effect”, the “kokumi effect (in words)” value (sensory panel [2]) was “no kokumi effect” and the Sensory descriptors (sensory panel [2]; additive 30 mmol/L) was “more salty than the negative control; also recorded: increased salty taste”. For the same molecule, the “Kokumi intensity (0-5)” value (sensory panel [2]; additive 30 mmol/L) was 2.
For `C=CCSC[C@H](NC(=O)CC[C@H](N)C(=O)O)C(=O)NCC(=O)O` [S-allyl-GSH, S-allyl-γ-L-Glu-L-Cys-Gly], the “Intensity (0-5)” value (sensory panel [1]) was 0 and the “Kokumi intensity (0-5)” value (sensory panel [2]; additive 10 mmol/L) was 3.2.
With `CCSC[C@H](NC(=O)CC[C@H](N)C(=O)O)C(=O)NCC(=O)O` [S-ethyl-GSH, S-ethyl-γ-L-Glu-L-Cys-Gly] the “Intensity (0-5)” value (sensory panel [1]) was 0 and the “Kokumi intensity (0-5)” value (sensory panel [2]; additive 10 mmol/L) was 2.3.
With `CCSC[C@H](N)C(=O)O` [S-ethyl-L-cysteine] the “Intensity (0-5)” value (sensory panel [1]) was 1 and the “Kokumi intensity (0-5)” value (sensory panel [2]; additive 10 mmol/L) was 2.7.
For `CSC[C@H](N)C(=O)O` [S-methyl-L-cysteine], the Sensory descriptors (sensory panel [1]) was “flavourless”, the “Intensity (0-5)” value (sensory panel [1]) was 0 and the “Kokumi intensity (0-5)” value (sensory panel [2]; additive 10 mmol/L) was 2.4.
For `CSC[C@H](NC(=O)CC[C@H](N)C(=O)O)C(=O)NCC(=O)O` [S-methyl-glutathione], the “Intensity (0-5)” value (sensory panel [1]) was 0 and the “Kokumi intensity (0-5)” value (sensory panel [2]; additive 10 mmol/L) was 2.8.
`CCCSC[C@H](NC(=O)CC[C@H](N)C(=O)O)C(=O)NCC(=O)O` [S-propyl-GSH, S-propyl-γ-L-Glu-L-Cys-Gly] was tested, and the Sensory descriptors (sensory panel [1]) was “flavourless”, the “Intensity (0-5)” value (sensory panel [1]) was 0 and the “Kokumi intensity (0-5)” value (sensory panel [2]; additive 10 mmol/L) was 2.1.
`CCCSC[C@H](N)C(=O)O` [S-propyl-L-cysteine] was tested, and the “Intensity (0-5)” value (sensory panel [1]) was 2, the “Kokumi intensity (0-5)” value (sensory panel [2]; additive 5 mmol/L) was 3.5 and the “Kokumi intensity (0-5)” value (sensory panel [2]; additive 10 mmol/L) was 3.5.
With `C=CCSC[C@H](NC(=O)CC[C@H](N)C(=O)O)C(=O)O` [γ-L-glutamyl-S-allyl-L-cysteine] the “Intensity (0-5)” value (sensory panel [1]) was 1 and the “Kokumi intensity (0-5)” value (sensory panel [2]; additive 10 mmol/L) was 3.7.
In the case of `CCSC[C@H](NC(=O)CC[C@H](N)C(=O)O)C(=O)O` [γ-L-glutamyl-S-ethyl-L-cysteine], the Sensory descriptors (sensory panel [1]) is reported as “tongue covering”, the “Intensity (0-5)” value (sensory panel [1]) is reported as 0.5 and the “Kokumi intensity (0-5)” value (sensory panel [2]; additive 10 mmol/L) is reported as 3.1.
In the case of `CSC[C@H](NC(=O)CC[C@H](N)C(=O)O)C(=O)O` [γ-L-glutamyl-S-methyl-L-cysteine], the Sensory descriptors (sensory panel [1]) is reported as “flavourless”, the “Intensity (0-5)” value (sensory panel [1]) is reported as 0 and the “Kokumi intensity (0-5)” value (sensory panel [2]; additive 10 mmol/L) is reported as 3.5.
With `CCCSC[C@H](NC(=O)CC[C@H](N)C(=O)O)C(=O)O` [γ-L-glutamyl-S-propyl-L-cysteine] the Sensory descriptors (sensory panel [1]) was “tongue covering”, the “Intensity (0-5)” value (sensory panel [1]) was 0.5 and the “Kokumi intensity (0-5)” value (sensory panel [2]; additive 10 mmol/L) was 2.8.
S-allyl-L-cysteine-(+)-SO [Alliin] was tested, and the “Kokumi intensity (0-5)” value (sensory panel [2]; additive 10 mmol/L) was 2.5.
For S-ethyl-L-cysteine-(±)-SO, the “Intensity (0-5)” value (sensory panel [1]) was 1 and the “Kokumi intensity (0-5)” value (sensory panel [2]; additive 10 mmol/L) was 2.1.
In the case of S-methyl-L-cysteine-(±)-SO, the Sensory descriptors (sensory panel [1]) is reported as “flavourless”, the “Intensity (0-5)” value (sensory panel [1]) is reported as 0 and the “Kokumi intensity (0-5)” value (sensory panel [2]; additive 10 mmol/L) is reported as 2.1.
With S-propyl-L-cysteine-(±)-SO the “Intensity (0-5)” value (sensory panel [1]) was 1, the “Kokumi intensity (0-5)” value (sensory panel [2]; additive 5 mmol/L) was 2.3 and the “Kokumi intensity (0-5)” value (sensory panel [2]; additive 10 mmol/L) was 2.3.
